These results are taken from PMC6270614 (Molecules, 2013).

Structures are written as SMILES. Read-outs that look alike come from different tables or passages of the source.

The target of series [1] is CB1 receptor. Particulars: cited from earlier work.
For series [2], the target named is CB2. Also on record: method as in PMID 21885167. Particulars: Figure 1; cited from earlier work.
For series [3], the target named is human cannabinoid CB1 receptor (Homo sapiens, UniProt P21554). In words: CB1 receptor radioligand ([3H]CP-55,940) displacement binding assay. The note with it: for IC50: CoMFA training and test set input. As to the method:
In all cases, Ki values were calculated by applying the Cheng-Prusoff equation [34] to the IC50 values (obtained by GraphPad, GraphPad Software, Inc., La Jolla, CA, USA) for the displacement of the bound radioligand by increasing concentrations of the test compounds (after three separate experiments for each compound).

Series [4] has as its system CB2. Set-up: method as in PMID 21420860. The note with it: Figure 1; read-out: IC50 cAMP (CB2); cited from earlier work.
Series [5] concerns CB1. Also on record: method as in PMID 21420860. Particulars: Figure 1; read-out: IC50 cAMP (CB1); cited from earlier work.
Series [6] concerns CB1. Also on record: method as in PMID 21669533. Particulars: Figure 1; cited from earlier work.
Series [7] concerns CB2. Also on record: method as in PMID 21669533. Particulars: Figure 1; cited from earlier work.
The mark [8] stands for this setting: CB1 (Ki, nM), displacement of 0.5 nM [3H]CP-55,940, means ± SEM, n = 3, Cheng-Prusoff from IC50.
The mark [9] stands for this setting: Experimental activity (pIC50, M).
The mark [10] stands for this setting: read-out: Experimental activity (pIC50) (converted).

Sequence of human cannabinoid CB1 receptor (P21554 whole entry): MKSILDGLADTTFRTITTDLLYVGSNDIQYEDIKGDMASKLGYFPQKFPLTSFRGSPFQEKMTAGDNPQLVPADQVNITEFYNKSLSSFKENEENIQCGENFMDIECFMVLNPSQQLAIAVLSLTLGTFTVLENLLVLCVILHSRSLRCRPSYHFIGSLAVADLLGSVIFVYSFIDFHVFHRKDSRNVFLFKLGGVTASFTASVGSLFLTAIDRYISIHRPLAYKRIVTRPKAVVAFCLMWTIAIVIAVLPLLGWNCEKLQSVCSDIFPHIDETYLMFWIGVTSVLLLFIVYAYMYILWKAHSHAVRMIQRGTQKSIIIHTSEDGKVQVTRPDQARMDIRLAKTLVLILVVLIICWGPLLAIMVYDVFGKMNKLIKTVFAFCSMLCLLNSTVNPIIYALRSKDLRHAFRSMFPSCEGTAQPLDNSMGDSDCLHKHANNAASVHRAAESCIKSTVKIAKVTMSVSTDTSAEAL

A word on the Ki: it is the equilibrium dissociation constant of an inhibitor or competing ligand from its target. Take `CCCCCn1c(C)c(C(=O)c2ccccc2I)c2ccccc21` [AM679]: the inhibitory constant (Ki) in series [1] (non-selective CB1 and CB2 agonist) was 13.5 nM.
Regarding `CCCCCn1c(C)c(C(=O)c2cccc3ccccc23)c2cccnc21` [Abbott], in series [1] (Figure 1), the “pKi (CB1)” value was 7.9. Also, in series [2], the “pKi (CB2)” value is given as 7.3.
Usually melting point stands for the temperature, or range, at which the solid turns liquid. `Cc1cc2nc(-c3cccnc3)n(Cc3ccc4ccccc4c3)c2cc1C` [Compound 52, 5,6-Dimethyl-1-(naphthalen-2-ylmethyl)-2-(pyridin-3-yl)-1H-benzo[d]imidazole] came in with a melting point of 138.5 to 139.5 °C. Moreover, the Ki in series [3] (setting [8]) came to 140 ± 10.1 nM. Moreover, the IC50 in series [3] (setting [9]) is 256 nM.
In turn, `Fc1ccc2c(c1)nc(-c1ccncc1)n2Cc1ccc2ccccc2c1` [Compound 54, 5-Fluoro-1-(naphthalen-2-ylmethyl)-2-(pyridin-4-yl)-1H-benzo[d]imidazole] showed a melting point of 177.8 to 178.5 °C. For the same molecule, the Ki in series [3] (setting [8]) is 44.4 ± 5.5 nM. This molecule also gave an IC50 in series [3] (setting [9]) of 81.5 nM.
On to `Fc1ccc2nc(-c3ccncc3)n(Cc3ccc4ccccc4c3)c2c1` [Compound 55, 6-Fluoro-1-(naphthalen-2-ylmethyl)-2-(pyridin-4-yl)-1H-benzo[d]imidazole], for which the melting point lay within 163.5 to 164.1 °C. Also, the IC50 in series [3] (setting [10]) was 1040 nM. The Ki in series [3] (read-out: CB1 (Ki)) came to 567 ± 7 nM.
Molecule `Cc1cc2nc(-c3ccncc3)n(Cc3ccc4ccccc4c3)c2cc1C` [Compound 56, 5,6-Dimethyl-1-(naphthalen-2-ylmethyl)-2-(pyridin-4-yl)-1H-benzo[d]imidazole] came in with a melting point of 133.7 to 134.5 °C. For the same molecule, the IC50 in series [3] (setting [10]) was 442 nM. In series [3] (read-out: CB1 (Ki)), the Ki was determined as 241 ± 10 nM.
On to `O=C(c1cccc(Cl)c1Cl)c1nc(CN2CCC(F)(F)CC2)c2ccccn12` [Merck], for which the IC50 in series [4] was 0.3 nM; in series [5], 90 nM.
The term EC50 denotes the concentration giving half of the maximal effect. In the case of `CCS(=O)(=O)c1ccc2c(c1)nc(C(C)(C)C)n2C[C@@H]1CCCO1` [Pfizer], the figures for the concentration for a half-maximal effect (EC50) in series [6] and in series [7] were more than 10000 nM and 11.7 nM, respectively.
